Measurements reported in patent US7659113B2 (priority 2002, dated 2010).
“Also recorded” adds a separate entry of the source.

Tests used:
influenza virus = conditions: cited from earlier work
[1] = system: FPV HA/M2 pseudotyped SIN-6.1CZW vector; type: cell-based
[2] = system: VSV-G pseudotyped SIN-6.1CZW vector; type: cell-based
VSV = conditions: cited from earlier work
[3] = system: VSV-G pseudotyped SIN-6.1CZW vector; type: cell-based; remark: listed apart in the source
wild type FPV M2 = wild type FPV M2 (Influenza A virus, UniProt P03492); test: cell-based; type: cell-based
wild type FPV M2, sequence (P03492 whole entry, looked up): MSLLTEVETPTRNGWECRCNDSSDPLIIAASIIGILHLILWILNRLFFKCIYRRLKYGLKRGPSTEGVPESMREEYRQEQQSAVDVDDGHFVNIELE

NC12CC3CC(CC(C3)C1)C2 [amantadine]
inhibition of influenza virus replication in cell culture (influenza virus): effective inhibitor | effect on gene transfer step of HA pseudotyped vector [1]: affected the gene transfer step; also recorded: Higher doses were required to inhibit transduction than to inhibit vector production | effect on pseudotyping of SIN-6.1CZW by VSV-G [2]: did not affect | VSV replication, sensitivity to amantadine (VSV): refractory | effect on gene transfer by VSV-G pseudotyped vector [3]: did not affect gene transfer | effect on vector production (wild type FPV M2): inhibits the augmentation of HA pseudotyping by M2; also recorded: potent dose-dependent effect | inhibition at 5 µM (wild type FPV M2; read-out: inhibition of M2 augmented vector production): 70%
